{"source": "patent US10556926B2", "about": "“Synthetic artificial peptides with antimicrobial effect” (priority 2014, dated 2020)", "key": {"Staphylococcus xylosus": {"tested_on": "Staphylococcus xylosus", "test": "Mixed culture experiment (bacterially contaminated cell culture), bacteria", "format": "cell-based", "settings": "25 and 50 μM peptide, two hours, with U937", "method": "(§1) Destruction of the bacteria membranes by the antimicrobial peptides was investigated in a flow cytometric method with the help of a living/dead staining method in combination with an internal calibration and counting system. For this purpose, SYBR Green I (Sigma-Aldrich) was used as total staining and propidium iodide (Sigma-Aldrich) was used as contrast staining for membrane-damaged bacteria. […] The flow analysis was carried out on a Cytomics FC500 Instrument (Beckmann Coulter, Munich, Germany) equipped with an argon laser (488 nm) and the corresponding emission filters for SYBR Green I (525 nm) and propidium iodide (620 nm). […] Then, the mixture was incubated for 10 min in the dark at room temperature and then measured by flow cytometry. The number of events in each gate was captured and evaluated using the CXP Analyses 2.2 Software. The total number of living and dead bacteria was calculated. […]\n(§2) The ability of the antimicrobial peptides to be used as a therapeutic active ingredient was investigated by reference to its selective antimicrobial properties in model mixed culture experiments. […] Then, the mixed cell cultures were stained and measured by flow cytometry as described in example 3, the measurement scale being adapted to the measurement of the larger eukaryotic cells."}, "human cell line U937": {"tested_on": "human cell line U937", "test": "Mixed culture experiment (bacterially contaminated cell culture), eukaryotic cells", "format": "cell-based", "settings": "25 and 50 μM peptide, two hours, with S. xylosus", "method": "as §1, §2"}}, "data": [{"smiles": "CC[C@H](C)[C@H](NC(=O)CN)C(=O)NCC(=O)N[C@@H](C)C(=O)N[C@H](C(=O)N[C@@H](CC(C)C)C(=O)N[C@@H](CCCCN)C(=O)N[C@H](C(=O)N[C@@H](CC(C)C)C(=O)N[C@H](C(=O)N[C@H](C(=O)NCC(=O)N[C@@H](CC(C)C)C(=O)N1CCC[C@H]1C(=O)N[C@@H](C)C(=O)N[C@@H](CC(C)C)C(=O)N[C@H](C(=O)N[C@@H](CO)C(=O)N[C@@H](Cc1c[nH]c2ccccc12)C(=O)N[C@H](C(=O)N[C@@H](CCCCN)C(=O)N[C@@H](CCCNC(=N)N)C(=O)N[C@@H](CCCCN)C(=O)N[C@@H](CCCNC(=N)N)C(=O)N[C@@H](CCC(N)=O)C(=O)N[C@@H](CCC(N)=O)C(N)=O)[C@@H](C)CC)[C@@H](C)CC)[C@@H](C)O)[C@@H](C)O)C(C)C)C(C)C", "note": "[Melittin]", "values": [{"measurement": "Killing of S. xylosus cells in mixed culture", "setting": "Staphylococcus xylosus", "result": "comprehensive killing of bacteria cells"}, {"measurement": "Effect on eukaryotic U937 cells in mixed culture", "setting": "human cell line U937", "result": "destroys all of the eukaryotic U937 cells"}]}]}
